Key:
[1] = tested on: Enterobacter cloacae (ECL) isolates; assay: MIC of compounds alone and combined with antibacterials, broth microdilution (CLSI); assay type: cell-based
How it was run: (§1)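 First, log-phase suspensions are brought to 5.10^5 CFU/mL final in ca-MHB; plates then incubate 16-20 h at 35° C in air. Growth is judged visually, giving the compound MIC alone and the antibacterial MIC at each compound concentration.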

[2] = tested on: Providencia rettgeri (PRE) isolates; assay: as above; assay type: cell-based
How it was run: as §1

SMILES: C=CC1=C(C(=O)O)N2C(=O)[C@@H](NC(=O)/C(=N\OCC(=O)O)c3csc(N)n3)[C@H]2SC1 [FIX, Cefixime]
- MIC ([1]; strain ECL UFR84, genotype TEM-1, AmpC, OXA-1): >128 µg/mL
- MIC ([1]; strain ECL UFR85, genotype TEM-1, CTX-M-15, AmpC): >128 µg/mL
- MIC ([1]; strain ECL UFR192, genotype TEM-1, NDM-1, antibiotic alone): >128 µg/mL
- MIC ATB in combination ([1]; strain ECL UFR192, with AF2 @ 8 μg/mL): >128 µg/mL
- MIC ATB in combination ([1]; strain ECL UFR192, with AF3 @ 8 μg/mL): >128 µg/mL
- MIC ATB in combination ([1]; strain ECL UFR192, with CLA @ 4 μg/mL): >128 µg/mL
- MIC ([1]; strain ECL UFR193, genotype TEM-1, CTX-M-15, OXA-1, NDM-1, RmtC, antibiotic alone): >128 µg/mL
- MIC ATB in combination ([1]; strain ECL UFR193, with AF2 @ 8 μg/mL): >128 µg/mL
- MIC ATB in combination ([1]; strain ECL UFR193, with AF3 @ 8 μg/mL): <=0.25 μg/mL
- MIC ATB in combination ([1]; strain ECL UFR193, with CLA @ 4 μg/mL): >128 µg/mL
- MIC ([1]; strain ECL UFR194, genotype OXA-48): 4 µg/mL
- MIC ATB in combination ([1]; strain ECL UFR194, with AF2 @ 8 μg/mL): <=0.25 μg/mL
- MIC ATB in combination ([1]; strain ECL UFR194, with AF3 @ 8 μg/mL): <=0.25 μg/mL
- MIC ATB in combination ([1]; strain ECL UFR194, with CLA @ 4 μg/mL): 8 µg/mL
- MIC ([1]; strain ECL UFR195, genotype TEM-1, CTX-M-15, OXA-1, OXA-48): >128 µg/mL
- MIC ATB in combination ([1]; strain ECL UFR195, with AF2 @ 8 μg/mL): 8 µg/mL
- MIC ATB in combination ([1]; strain ECL UFR195, with AF3 @ 8 μg/mL): 0.5 µg/mL
- MIC ATB in combination ([1]; strain ECL UFR195, with CLA @ 4 μg/mL): >128 µg/mL
- MIC ([1]; strain ECL UFR196, genotype TEM-1, CTX-M-15, OXA-1, OXA-48): >128 µg/mL
- MIC ATB in combination ([1]; strain ECL UFR196, with AF2 @ 8 μg/mL): 8 µg/mL
- MIC ATB in combination ([1]; strain ECL UFR196, with AF3 @ 8 μg/mL): 2 µg/mL
- MIC ATB in combination ([1]; strain ECL UFR196, with CLA @ 4 μg/mL): >128 µg/mL
- MIC ([1]; strain ECL UFR197, genotype TEM-1, CTX-M-15, OXA-1, OXA-48): >128 µg/mL
- MIC ATB in combination ([1]; strain ECL UFR197, with AF2 @ 8 μg/mL): 32 µg/mL
- MIC ATB in combination ([1]; strain ECL UFR197, with AF3 @ 8 μg/mL): 4 µg/mL
- MIC ATB in combination ([1]; strain ECL UFR197, with CLA @ 4 μg/mL): 128 µg/mL
- MIC ([1]; strain ECL UFR198, genotype TEM-1, SHV-12, CTX-M-15, DHA-1, OXA-1, OXA-48): >128 µg/mL
- MIC ATB in combination ([1]; strain ECL UFR198, with AF2 @ 8 μg/mL): 128 µg/mL
- MIC ATB in combination ([1]; strain ECL UFR198, with AF3 @ 8 μg/mL): 32 µg/mL
- MIC ATB in combination ([1]; strain ECL UFR198, with CLA @ 4 μg/mL): >128 µg/mL
- MIC ([1]; strain ECL UFR200, genotype TEM-1, SHV-12, KPC-2): >128 µg/mL
- MIC ([1]; strain ECL UFR203, genotype TEM-1, SHV-12, VIM-1, antibiotic alone): >128 µg/mL
- MIC ATB in combination ([1]; strain ECL UFR203, with AF2 @ 8 μg/mL): >128 µg/mL
- MIC ATB in combination ([1]; strain ECL UFR203, with AF3 @ 8 μg/mL): >128 µg/mL
- MIC ATB in combination ([1]; strain ECL UFR203, with CLA @ 4 μg/mL): >128 µg/mL
- MIC ([1]; strain ECL UFR214, genotype TEM-1, SHV-31, CTX-M-15, VIM-4, antibiotic alone): >128 µg/mL
- MIC ATB in combination ([1]; strain ECL UFR214, with AF2 @ 8 μg/mL): >128 µg/mL
- MIC ATB in combination ([1]; strain ECL UFR214, with AF3 @ 8 μg/mL): >128 µg/mL
- MIC ATB in combination ([1]; strain ECL UFR214, with CLA @ 4 μg/mL): >128 µg/mL
- MIC ([1]; strain ECL UFR252PT, genotype VIM-2, antibiotic alone): >128 µg/mL
- MIC ATB in combination ([1]; strain ECL UFR252PT, with AF2 @ 8 μg/mL): >128 µg/mL
- MIC ATB in combination ([1]; strain ECL UFR252PT, with AF3 @ 8 μg/mL): >128 µg/mL
- MIC ATB in combination ([1]; strain ECL UFR252PT, with CLA @ 4 μg/mL): >128 µg/mL
- MIC ATB in combination ([2]; PRE UFR99, AF2 @ 8 μg/mL): >128 µg/mL
- MIC ATB in combination ([2]; PRE UFR99, AF3 @ 8 μg/mL): >128 µg/mL
- MIC ATB in combination ([2]; PRE UFR99, CLA @ 4 μg/mL): >128 µg/mL
- MIC ([2]; strain PRE UFR96, genotype CTX-M-15, NDM-1): >128 µg/mL
- MIC ATB in combination ([2]; strain PRE UFR96, with AF2 @ 8 μg/mL): <0.25 µg/mL
- MIC ATB in combination ([2]; strain PRE UFR96, with AF3 @ 8 μg/mL): <0.25 µg/mL
- MIC ATB in combination ([2]; strain PRE UFR96, with CLA @ 4 μg/mL): >128 µg/mL
- MIC ([2]; strain PRE UFR97, genotype TEM-1, NDM-1): >128 µg/mL
- MIC ATB in combination ([2]; strain PRE UFR97, with AF2 @ 8 μg/mL): >128 µg/mL
- MIC ATB in combination ([2]; strain PRE UFR97, with AF3 @ 8 μg/mL): >128 µg/mL
- MIC ATB in combination ([2]; strain PRE UFR97, with CLA @ 4 μg/mL): >128 µg/mL
- MIC ([2]; strain PRE UFR99, genotype OXA-1, OXA-181): >128 µg/mL
- MIC ([2]; strain PRE UFR236, genotype TEM-1, OXA-48): 32 µg/mL
- MIC ATB in combination ([2]; strain PRE UFR236, with AF2 @ 8 μg/mL): <=0.25 μg/mL
- MIC ATB in combination ([2]; strain PRE UFR236, with AF3 @ 8 μg/mL): <=0.25 μg/mL
- MIC ATB in combination ([2]; strain PRE UFR236, with CLA @ 4 μg/mL): 32 µg/mL
